Source: patent US20040253261A1, “Biological compositions and methods for treatment of pancreatic cancer” (priority 2003, published 2004)
Where two headings read alike, the source gives them in different places.

Legend:
[1] = system: pancreatic cancer tumor cells; settings: for Number of live animals remaining in the groups after 30 days of treatment: 30 mice per group
Procedure: (§1) The survival time of mice after tumor injection and treatment was studied.
(§2) The biological composition comprising 10^8 cells per ml of activated and conditioned yeast cells of the strain Saccharomyces cerevisiae Hansen strain IFFI 1413 was prepared by the methods described in Section 5.1 and subsections therein.
The animals were prepared in a similar manner as described in Section 6.1.
The mice injected with tumor cells were divided into 4 experimental groups of ten mice per group and one control group. The four experimental groups were triplicated (i.e., using a total of 120 mice in the experimental groups). In group 2AY, the mice received 0.3 ml of the biological composition once per day. In group 2NY, the mice received 0.3 ml of the untreated yeast cells once per day. In group 2VDS, the mice were injected intravenously with 3 mg of vindesine (VDS) per kg body weight once a week for four weeks. In group 2CK1, the mice received 0.3 ml of physiological saline once per day.
(§3) The mice received the biological compositions, untreated yeast cells, VDS or saline on the same day as the tumor cells were transplanted. The mice in group 2CK2 also started receiving saline on the same day as the other four groups. The biological compositions, untreated yeast cells and saline were administered orally by a feeding tube and the VDS by intravenous injection for 30 consecutive days. The mice were observed over 6 months from the day of tumor inoculation and survival was recorded. The weight of the mice as well as the weight of the tumor were determined by standard techniques.

[2] = system: mouse pancreatic cancer cell line MPC-83; settings: for Number of live animals remaining in the groups after 30 days of treatment: 30 mice per group
Procedure: as §1
The biological composition comprising 10^8 per ml of activated and conditioned yeast cells of the strain Saccharomyces cerevisiae Hansen strain IFFI 1413 was prepared by the methods described in Section 5.1 and subsections therein.
The animals were prepared in a similar manner as described in Section 8.1.
The mice injected with tumor cells were kept for 5 days and were divided into 4 experimental groups of ten mice per group and one control group. The four experimental groups were triplicated (i.e., using a total of 120 mice in the experimental groups). In group 2AY, the mice received 0.5 ml of the biological composition once per day. In group 2NY, the mice received 0.5 ml of the untreated yeast cells once per day. In group 2MMC, the mice were injected intravenously with 1.5×10^5 units of mitomycin C (MMC) per kg body weight per day. In group 2CK1, the mice received 0.5 ml of physiological saline once per day.
as §3, with “MMC” for “VDS”

[3] = system: pancreatic cancer tumor cells; experiment: BALB/c mouse model of human pancreatic cancer, growth of tumors; settings: tumor-bearing BALB/c mice, 30 consecutive days of treatment, sacrificed on 31st day from tumor inoculation
Procedure: as §2
The mice injected with tumor cells were divided into 4 experimental groups of ten mice per group and one control group. The four experimental groups were triplicated (i.e., using a total of 120 mice in the experimental groups).
The mice in group CK2 also started receiving saline on the same day as the other four groups. The biological compositions, untreated yeast cells and saline were administered orally by a feeding tube and the VDS by intravenous injection for 30 consecutive days.

[4] = system: mouse pancreatic cancer cell line MPC-83; experiment: kun ming mouse model of pancreatic cancer (MPC-83), growth of tumors; settings: MPC-83-bearing kun ming mice, 30 consecutive days of treatment, sacrificed on 31st day from tumor inoculation
Procedure: as §2
The mice injected with tumor cells were kept for 5 days and were divided into 4 experimental groups of ten mice per group and one control group. The four experimental groups were triplicated (i.e., using a total of 120 mice in the experimental groups).
The mice received the biological compositions, untreated yeast cells, MMC or saline on the same day as the tumor cells were transplanted. The mice in group CK2 also started receiving saline on the same day as the other four groups. The biological compositions, untreated yeast cells and saline were administered orally by a feeding tube and the MMC by intravenous injection for 30 consecutive days.

[5] = 0 month after cessation of treatment
[6] = 1 month after cessation of treatment
[7] = 2 months after cessation of treatment
[8] = 3 months after cessation of treatment
[9] = 4 months after cessation of treatment
[10] = 5 months after cessation of treatment
[11] = 6 months after cessation of treatment
[12] = mice that survived, observed over 6 months from tumor inoculation

Q: With `CC[C@]1(O)C[C@@H]2CN(CCc3c([nH]c4ccccc34)[C@@](C(=O)OC)(c3cc4c(cc3OC)N(C)[C@H]3[C@@](O)(C(N)=O)[C@H](O)[C@]5(CC)C=CCN6CC[C@]43[C@@H]65)C2)C1` [Group 2VDS, vindesine] as the compound, how does the “Number of live animals remaining in the groups after 30 days of treatment” value (shortened to “Number of live animals remaining”) [1, 5] read?
A: Its value is 30.

Q: What about the “Number of live animals remaining” value [1, 6] of the same compound?
A: Its value is 30.

Q: And the “Number of live animals remaining” value [1, 7]?
A: The value was 27.

Q: What about the “Number of live animals remaining” value [1, 8] of the same compound?
A: The value was 27.

Q: What about the “Number of live animals remaining” value [1, 9] of the same compound?
A: Its value is 11.

Q: And the “Number of live animals remaining” value [1, 10]?
A: Its value is 0.

Q: And the “Number of live animals remaining” value [1, 11]?
A: The value was 0.

Q: And the “survival time of mice bearing pancreatic cancer cells” value ([1]; BALB/c mice, 30 days of treatment, from injection of tumor cells)?
A: Its value is “all died after four months”.

Q: And the “mean weight of mice and standard deviation” value [1, 12]?
A: Its value is “all animals dead”.

Q: And the “mean weight of tumor nodules and standard deviation” value [1, 12]?
A: Its value is “all animals dead”.

Q: With `CO[C@@]12[C@H](COC(N)=O)C3=C(C(=O)C(C)=C(N)C3=O)N1C[C@@H]1N[C@@H]12` [Group MMC, mitomycin C] as the compound, how does the “Number of live animals remaining” value [2, 5] read?
A: The value was 30.

Q: What about the “Number of live animals remaining” value [2, 6] of the same compound?
A: The value was 27.

Q: And the “Number of live animals remaining” value [2, 7]?
A: The value was 21.

Q: And the “Number of live animals remaining” value [2, 8]?
A: The value was 7.

Q: And the “Number of live animals remaining” value [2, 9]?
A: The value was 0.

Q: And the “Number of live animals remaining” value [2, 10]?
A: The value was 0.

Q: What about the “Number of live animals remaining” value [2, 11] of the same compound?
A: Its value is 0.

Q: What about the “survival time of mice bearing pancreatic cancer cells” value ([2]; kun ming mice, 30 days of treatment, from injection of tumor cells) of the same compound?
A: Its value is “all died after four months”.

Q: And the “mean weight of mice and standard deviation” value [2, 12]?
A: Its value is “all animals dead”.

Q: What about the “mean weight of tumor nodules and standard deviation” value [2, 12] of the same compound?
A: The value was “all animals dead”.

Q: And the “mean weight of mice and standard deviation” value [3]?
A: The value was 18.9 ± 3.4 g.

Q: And the “mean weight of tumor nodules and standard deviation” value [3]?
A: The value was 1.37 ± 0.7 mg.

Q: And the “mean weight of mice and standard deviation” value [4]?
A: The value was 18.3 ± 1.5 g.

Q: And the “mean weight of tumor nodules and standard deviation” value [4]?
A: The value was 2.8 ± 1.2 g.
